How the values were obtained:
[1] = 101 kPa, Liquid; for speed of sound: Pulse-echo method
[2] = refractive index (Na D-line) (dimensionless); settings: 101.33 kPa, Liquid, Standard Abbe refractometry
[3] = refractive index (Na D-line) (dimensionless); xn = mol fraction of the nth substance listed; settings: 101 kPa, Liquid, Standard Abbe refractometry, x2 = 0
[4] = xn = mol fraction of the nth substance listed; settings: 101 kPa, Liquid, x2 = 0; for speed of sound: Pulse-echo method

Cc1ccccc1Cl [2-chlorotoluene]
Settings	mass density, [1] [kg/m3]	refractive index, [2]	speed of sound, [1] [m/s]	viscosity, [1] [mPa·s]
298.15 K	1077.41	1.5219	1301.2	0.943
303.15 K	1072.83	1.5189	1284.1	0.885
308.15 K	1068.24	1.5169	1266.1	0.805

Cc1cccc(Cl)c1 [3-chlorotoluene]
Settings	mass density, [1] [kg/m3]	refractive index, [2]	speed of sound, [1] [m/s]	viscosity, [1] [mPa·s]
298.15 K	1067.29	1.5207	1298.3	0.798
303.15 K	1062.81	1.5189	1280.1	0.746
308.15 K	1058.33	1.5169	1262.1	0.705

Cc1ccc(Cl)cc1 [4-chlorotoluene]
Settings	mass density, [1] [kg/m3]	refractive index, [2]	speed of sound, [1] [m/s]	viscosity, [1] [mPa·s]
298.15 K	1065.11	1.5188	1289.1	0.828
303.15 K	1059.51	1.5166	1271	0.784
308.15 K	1053.9	1.5138	1253.1	0.73

CCCCCCCCCCO [decan-1-ol]
Settings	mass density, [1] [kg/m3]	refractive index, [2]	speed of sound, [1] [m/s]	viscosity, [1] [mPa·s]
298.15 K	826.41	1.4346	1380.1	11.82
303.15 K	822.92	1.4326	1364.9	9.766
308.15 K	819.42	1.4305	1346	8.13

CCCCCCCCCCO [decan-1-ol] + Cc1ccc(Cl)cc1
Settings	mass density, [4] [kg/m3]	refractive index, [3]	speed of sound, [4] [m/s]	viscosity, [4] [mPa·s]
298.15 K	826.41	1.4346	1380.1	11.82
303.15 K	822.92	1.4326	1364.9	9.766
308.15 K	819.42	1.4305	1346	8.13

CCCCCCCCCCO [decan-1-ol] + Cc1cccc(Cl)c1
Settings	mass density, [4] [kg/m3]	refractive index, [3]	speed of sound, [4] [m/s]	viscosity, [4] [mPa·s]
298.15 K	826.41	1.4346	1380.1	11.82
303.15 K	822.92	1.4326	1364.9	9.766
308.15 K	819.42	1.4305	1346	8.13

CCCCCCCCCCO [decan-1-ol] + Cc1ccccc1Cl
Settings	mass density, [4] [kg/m3]	refractive index, [3]	speed of sound, [4] [m/s]	viscosity, [4] [mPa·s]
298.15 K	826.41	1.4346	1380.1	11.82
303.15 K	822.92	1.4326	1364.9	9.766
308.15 K	819.42	1.4305	1346	8.13

Reference: the NIST ThermoML archive (doi:10.1007/s10765-011-0995-x)
